Test results from PMC11288129, “Diversely evolved xibalbin variants from remipede venom inhibit potassium channels and activate PKA-II and Erk1/2 signaling” (BMC Biology, 2024).
Entries after “also recorded” stand apart in the source; their conditions may differ. Positions of bridges follow the written chain, without caps; N, C: chain ends. No end group written: not given here.

Test system: PKA-II (phospho-RIIα/β) in rat DRG neurons
Assay: High-content imaging of PKA-II activity (pRII) in DRG sensory neurons
Assay type: cell-based
Settings: for PKA-II activation: 5 and 30 min, 0.005 to 0.8 µg/µL; for increase in phospho-PKA-II intensity: 5 min; for pRII response by neuron size: xibalbins 0.8 µg/µL
Procedure: To gauge sensory neuron activity in response to various activating stimuli, including electrical activity, phosphorylation state detection of protein kinase A type II (PKA-II) and MAP kinase Erk1/2 can act as surrogate measurements. Consequently, we tested for increased phosphorylation states in a concentration-dependent manner following exposure to xibalbins. Dissociated DRG neurons were cultured overnight and then exposed to increasing concentrations of the corresponding xibalbins for 5 min and 30 min, respectively. As a positive control, forskolin (Fsk) was also used to induce cAMP synthesis. The activity of PKA-II was monitored by antibodies directed against the phosphorylation site of the inhibitory regulatory subunits RIIα/β, which is exclusively accessible when the catalytic kinase domain is released during kinase activation. For measuring Erk1/2 activity, phospho-sites on Erk1/2 (T202/Y204) were monitored through immunofluorescence, as these sites are phosphorylated during activation. Cellular images were captured using HCI microscopy (Fig. 8A), and the average intensity of each phospho-antibody was quantified (Fig. 8B).
Fig. 8 A Representative images of rat DRG neurons stimulated with PBS (Ctrl) and xib1b (0.8 µg/µL). Cells were stained for UCHL1, pRII, pERK1/2, and Hoechst followed by fixation and staining with standard immunocytochemistry protocols. Green-encircled neurons indicate automatically selected objects. Scale bar: 100 µm. B Mean intensities of UCHL1, pRII, and pERK1/2. The same UCHL1 intensities were observed among tested groups. Forskolin (Fsk), an activator of adenylyl cyclase, was used as a positive control. Fsk at 6 µM concentration induced an increase in pRII and pERK1/2 intensities at 5 and 30 min. Number of analyzed cells per replica: 750 ± 200. Eight independent replicas. C–F Concentration responses of xibalbin toxins (0.005 to 0.8 µg/µL) and mean intensities of pRII and pERK1/2 at 5 min and 30 min. G–H Size versus pRII and pErk1/2 intensities of cells treated with 0.8 µg/µL of xib1 and xib13. Small-sized cells were responding to xibalbins. Statistical significance was assessed using one-way ANOVA with Dunnett’s post hoc test. Data represent mean ± S.E.M (standard error of the mean), n = 4, see “Methods” for details and Additional File 6: Table S2 for individual data values
Male Sprague Dawley rats (250–400 g, 8–16 weeks old) were obtained from Envigo. Rats were kept in 12 h of light/darkness cycles. All experiments were performed in accordance with the German animal welfare law with permission of the District Government for Nature and Environment, NRW (84–02.05.20.13.045, 4.18.003). Rats were scarified by slow inhalation of CO2 which was followed by decapitation. DRGs were extracted from rats, deheated, pooled, and incubated in Neurobasal A/B27 medium (Invitrogen, #12349–015) supplemented with B-27 (Invitrogen #17504), L-glutamine 1:400, L-glutamate 1:270.3, and penicillin/streptomycin 1:100 containing 0.2 U/mL collagenase P (collagenase P, Roche, #1213857) and incubated for 1 h at 37 °C, 5% CO2. DRGs were dissociated with pasteur pipettes and axon stumps were separated by BSA (Sigma-Aldrich, # A2153-100G) gradient centrifugation (14% BSA, 120 g, 8 min). Cells were resuspended in NBA medium, plated in 96-well imaging plate (Greiner BioOne Sensoplate, Black, #655896) precoated with poly-L-ornithine hydrochloride (0.1 mg/ml Sigma, #P2533)/laminin (5 µg/ml Invitrogen, #23017–015), and incubated overnight at 37 °C, 5% CO2.
DRGs were stimulated after overnight incubation. Compounds were prepared as tenfold concentrated stock solutions, diluted in PBS (PAA, cat# H15-002), in v-bottom plates; 50 µL media from culture wells were mixed with the […] stock solutions, and 50 µL added back to the respective wells. Stimulation was performed with automated multichannel pipette and cells were kept in heated block during the stimulation. […]

Row | Sequence | PKA-II activation | increase in phospho-PKA-II intensity (0.4 µg/µL (74 µM), q = 3.29) | increase in phospho-PKA-II intensity (0.8 µg/µL (148 µM), q = 4.17) | change in phospho-PKA-II intensity (30 min) | pRII response by neuron size
1 | KRSCIRRFGRCDHRPNDCCYNSSCRCNLWGSNCRCQRMGLFQKWGK (disulfide 4-19, 11-24, 18-35, 26-33) [xib13] | increase PKA-II and Erk1/2 sensitization signaling; also recorded: increased PKA-II and pErk1/2 activity | up to 1.21 fold | up to 1.21 fold | No change | increased phosphorylation signals in both small-sized and large-sized sensory neurons
2 | RLFCIRHHKYCGHRPKRCCSGLFCRCNTFGTNCRCQSKGALGKLI (disulfide 4-19, 11-24, 18-35, 26-33) [xib1] | increase PKA-II and Erk1/2 sensitization signaling; also recorded: increased PKA-II and pErk1/2 activity | – | – | – | increased phosphorylation signals in both small-sized and large-sized sensory neurons
